According to PubChem BioAssay AID1963986 (Molecular Pharmacology Branch, DTP, NCI, 2024):

System: 171881-019-R-J1-PDC tumor spheroid viability
Assay: Anticancer human tumor 171881-019-R-J1-PDC patient-derived invasive breast carcinoma cell line growth inhibition [PI3K]
Conditions: spheroids with HUVEC and MSC; for IC50: curve of first compound; for viability, T/C: stronger effect = lower value; active = viability on the fitted dose curve at most 10% of control; inactive = the rest
How it was run: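 Agents were dosed from a top concentration near clinical Cmax (otherwise 10 microM) in half-log decrements, alone or combined with PI3K inhibitors. The spheroids contain tumor cells plus endothelial (HUVEC) and MSC stroma; viability is measured.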

[1] = second compound 0.0316 µM, first compound 0.0316 µM
[2] = second compound 0.0316 µM, first compound 0.1 µM
[3] = second compound 0.1 µM, first compound 0.0316 µM
[4] = second compound 0.1 µM, first compound 0.1 µM
[5] = second compound 0.316 µM, first compound 0.0316 µM
[6] = second compound 0.316 µM, first compound 0.1 µM
[7] = second compound 1 µM, first compound 0.0316 µM
[8] = second compound 1 µM, first compound 0.1 µM
[9] = second compound 3.16 µM, first compound 0.0316 µM
[10] = second compound 3.16 µM, first compound 0.1 µM
[11] = second compound 10 µM, first compound 0.0316 µM
[12] = second compound 10 µM, first compound 0.1 µM
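Also: spheroids exposed to compound for 7 days before viability read.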
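For viability, T/C in this document: 100% = DMSO vehicle-treated spheroids.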

CC(C)n1nc(-c2ccc3oc(N)nc3c2)c2c(N)ncnc21 + Cc1nc(NC(=O)N2CCCC2C(N)=O)sc1-c1ccnc(C(C)(C)C(F)(F)F)c1
< 0.316 nM: IC50 (second compound 1 µM) | IC50 (second compound 3.16 µM) | IC50 (second compound 10 µM)
6.6 nM: IC50 (second compound 0.0316 µM)
active: viability, T/C [2] 3.37% | viability, T/C [4] 4.36% | viability, T/C [5] 8.1% | viability, T/C [6] 2.79% | viability, T/C [7] 4.74% | viability, T/C [8] 2.58% | viability, T/C (second compound 3.16 µM, first compound 0.00316 µM) 8.19% | viability, T/C (second compound 3.16 µM, first compound 0.01 µM) 5.31% | viability, T/C [9] 3.23% | viability, T/C [10] 2.15% | viability, T/C (second compound 10 µM, first compound 0.000316 µM) 3.18% | viability, T/C (second compound 10 µM, first compound 0.001 µM) 3.44% | viability, T/C (second compound 10 µM, first compound 0.00316 µM) 2.64% | viability, T/C (second compound 10 µM, first compound 0.01 µM) 2.7% | viability, T/C [11] 2.05% | viability, T/C [12] 1.46%
0.378 nM: IC50 (second compound 0.316 µM)
inactive: viability, T/C (second compound 0.0316 µM, first compound 0.000316 µM) 93.8% | viability, T/C (second compound 0.0316 µM, first compound 0.001 µM) 78% | viability, T/C (second compound 0.0316 µM, first compound 0.00316 µM) 63.1% | viability, T/C (second compound 0.0316 µM, first compound 0.01 µM) 46.8% | viability, T/C [1] 16.1% | viability, T/C (second compound 0.1 µM, first compound 0.000316 µM) 79.6% | viability, T/C (second compound 0.1 µM, first compound 0.001 µM) 74.2% | viability, T/C (second compound 0.1 µM, first compound 0.00316 µM) 52.7% | viability, T/C (second compound 0.1 µM, first compound 0.01 µM) 35.6% | viability, T/C [3] 13.1% | viability, T/C (second compound 0.316 µM, first compound 0.000316 µM) 52% | viability, T/C (second compound 0.316 µM, first compound 0.001 µM) 44% | viability, T/C (second compound 0.316 µM, first compound 0.00316 µM) 38% | viability, T/C (second compound 0.316 µM, first compound 0.01 µM) 22.4% | viability, T/C (second compound 1 µM, first compound 0.000316 µM) 31.4% | viability, T/C (second compound 1 µM, first compound 0.001 µM) 26.7% | viability, T/C (second compound 1 µM, first compound 0.00316 µM) 18.5% | viability, T/C (second compound 1 µM, first compound 0.01 µM) 10.9% | viability, T/C (second compound 3.16 µM, first compound 0.000316 µM) 11.9% | viability, T/C (second compound 3.16 µM, first compound 0.001 µM) 11.9%
4.2 nM: IC50 (second compound 0.1 µM)

CC1(C)CCC(CN2CCN(c3ccc(C(=O)NS(=O)(=O)c4ccc(NCC5CCOCC5)c([N+](=O)[O-])c4)c(Oc4cnc5[nH]ccc5c4)c3)CC2)=C(c2ccc(Cl)cc2)C1 + Cc1nc(NC(=O)N2CCCC2C(N)=O)sc1-c1ccnc(C(C)(C)C(F)(F)F)c1
3340 nM: IC50 (second compound 0.1 µM)
3840 nM: IC50 (second compound 0.0316 µM)
< 31.6 nM: IC50 (second compound 1 µM) | IC50 (second compound 3.16 µM) | IC50 (second compound 10 µM)
1530 nM: IC50 (second compound 0.316 µM)
inactive: viability, T/C [1] 102% | viability, T/C [2] 86.9% | viability, T/C (second compound 0.0316 µM, first compound 0.316 µM) 90.8% | viability, T/C (second compound 0.0316 µM, first compound 1 µM) 81.5% | viability, T/C (second compound 0.0316 µM, first compound 3.16 µM) 56.6% | viability, T/C (second compound 0.0316 µM, first compound 10 µM) 13.9% | viability, T/C [3] 94.3% | viability, T/C [4] 70.6% | viability, T/C (second compound 0.1 µM, first compound 0.316 µM) 75.5% | viability, T/C (second compound 0.1 µM, first compound 1 µM) 73.7% | viability, T/C (second compound 0.1 µM, first compound 3.16 µM) 52% | viability, T/C (second compound 0.1 µM, first compound 10 µM) 13.1% | viability, T/C [5] 54.8% | viability, T/C [6] 52.6% | viability, T/C (second compound 0.316 µM, first compound 0.316 µM) 56.1% | viability, T/C (second compound 0.316 µM, first compound 1 µM) 57.6% | viability, T/C (second compound 0.316 µM, first compound 3.16 µM) 41% | viability, T/C (second compound 0.316 µM, first compound 10 µM) 10.3% | viability, T/C [7] 33.8% | viability, T/C [8] 34.3% | viability, T/C (second compound 1 µM, first compound 0.316 µM) 33.6% | viability, T/C (second compound 1 µM, first compound 1 µM) 33.4% | viability, T/C (second compound 1 µM, first compound 3.16 µM) 31.6% | viability, T/C (second compound 1 µM, first compound 10 µM) 8.49% | viability, T/C [9] 13.2% | viability, T/C [10] 14.2% | viability, T/C (second compound 3.16 µM, first compound 0.316 µM) 12.7% | viability, T/C (second compound 3.16 µM, first compound 1 µM) 14.6% | viability, T/C (second compound 3.16 µM, first compound 3.16 µM) 15.9% | viability, T/C (second compound 3.16 µM, first compound 10 µM) 5.35%
active: viability, T/C [11] 3.36% | viability, T/C [12] 3.47% | viability, T/C (second compound 10 µM, first compound 0.316 µM) 3.28% | viability, T/C (second compound 10 µM, first compound 1 µM) 3.12% | viability, T/C (second compound 10 µM, first compound 3.16 µM) 3.52% | viability, T/C (second compound 10 µM, first compound 10 µM) 2.22%
